ChEMBL document CHEMBL1153663, “Inhibition of human erythrocyte calpain I by novel quinolinecarboxamides” (Bioorg Med Chem Lett, 1995)

biological target: T1, Calpain-1 catalytic subunit (Homo sapiens) (UniProt P07384); assay: In vitro inhibitory activity against human erythrocyte Calpain 1 at a concentration of 50 uM
T1 sequence (whole entry): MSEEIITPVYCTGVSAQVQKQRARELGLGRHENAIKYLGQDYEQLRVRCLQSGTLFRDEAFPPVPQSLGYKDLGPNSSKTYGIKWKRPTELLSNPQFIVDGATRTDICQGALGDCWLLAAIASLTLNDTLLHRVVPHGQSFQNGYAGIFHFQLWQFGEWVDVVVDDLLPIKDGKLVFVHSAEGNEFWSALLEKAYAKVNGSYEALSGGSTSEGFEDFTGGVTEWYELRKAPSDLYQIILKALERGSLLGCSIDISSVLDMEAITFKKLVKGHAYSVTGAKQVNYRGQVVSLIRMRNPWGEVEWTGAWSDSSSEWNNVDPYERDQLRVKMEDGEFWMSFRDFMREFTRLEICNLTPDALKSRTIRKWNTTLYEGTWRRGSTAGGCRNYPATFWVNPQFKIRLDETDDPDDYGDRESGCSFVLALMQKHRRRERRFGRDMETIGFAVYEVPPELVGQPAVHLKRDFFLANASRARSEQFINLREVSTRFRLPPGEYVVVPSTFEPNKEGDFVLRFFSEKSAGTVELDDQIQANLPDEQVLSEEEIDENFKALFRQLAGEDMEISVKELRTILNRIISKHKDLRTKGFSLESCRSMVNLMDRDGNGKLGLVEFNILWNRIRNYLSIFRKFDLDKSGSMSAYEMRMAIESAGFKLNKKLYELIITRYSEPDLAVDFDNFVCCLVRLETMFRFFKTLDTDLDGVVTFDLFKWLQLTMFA

Q: `CN(C)C(=O)c1cn(-c2ccc(O)cc2)c2cc(-c3ccncc3)ccc2c1=O` was tested. Which inhibition did it give?
A: Its inhibition is less than 10%.

Q: With `CNC(=O)c1cn(-c2ccc(O)cc2)c2cc(-c3ccncc3)ccc2c1=O` as the compound, how does the inhibition read?
A: Its inhibition is less than 10%.

Q: How did the inhibition turn out when `Cc1cc(-n2cc(C(N)=O)c(=O)c3ccc(-c4ccncc4)cc32)cc(C)c1O` was run?
A: The inhibition was less than 10%.

Q: With `O=C(NCCO)c1cn(-c2ccc(O)cc2)c2cc(-c3ccncc3)ccc2c1=O` as the compound, how does the inhibition read?
A: Its inhibition is less than 10%.

Q: `Cc1cncc(C)c1-c1ccc2c(=O)c(C(N)=O)cn(-c3ccc(O)cc3Cl)c2c1` was tested. Which inhibition did it give?
A: The inhibition was less than 10%.

Q: For `NC(=O)c1cn(-c2ccc(O)cc2)c2cc(-c3ccccc3)ccc2c1=O`, which inhibition is on record?
A: Its inhibition is less than 10%.

Q: `NC(=O)c1cn(-c2ccc(O)cc2)c2ccccc2c1=O` was tested. Which inhibition did it give?
A: The inhibition was less than 10%.

Q: `O=C(NO)c1cn(-c2ccc(O)cc2)c2cc(-c3ccncc3)ccc2c1=O` was tested. Which inhibition did it give?
A: The inhibition was less than 10%.

biological target: T2, Calpain-1 catalytic subunit (Homo sapiens, UniProt P07384); assay: In vitro inhibitory activity against human erythrocyte Calpain 1
T2 sequence (P07384 whole entry): T1 sequence (whole entry)

Q: Which IC50 does the source give for `NC(=O)c1cn(-c2ccc(O)cc2Cl)c2cc(-c3ccccn3)ccc2c1=O` here?
A: The IC50 was 30 µM.

Q: How did the IC50 turn out when `NC(=O)c1cn(-c2ccc(O)cc2Cl)c2cc(-c3ccnc(F)c3)ccc2c1=O` was run?
A: The IC50 was 30 µM.

Q: `Cc1cc(O)ccc1-n1cc(C(N)=O)c(=O)c2ccc(-c3ccncc3)cc21` was tested. Which IC50 did it give?
A: The IC50 was 0.5 µM.

Q: With `NC(=O)c1cn(-c2ccc(O)cc2Cl)c2cc(-c3ccoc3)ccc2c1=O` as the compound, how does the IC50 read?
A: Its IC50 is 2 µM.

Q: How did the IC50 turn out when `NC(=O)c1cn(-c2ccc(O)cc2F)c2cc(-c3ccncc3)ccc2c1=O` was run?
A: The IC50 was 7 µM.

Q: For `O=C(O)c1cn(-c2ccc(O)cc2)c2cc(-c3ccncc3)ccc2c1=O`, which IC50 is on record?
A: The IC50 was 20 µM.

Q: With `NC(=O)c1cn(-c2ccc(O)cc2Cl)c2cc(-n3cccn3)ccc2c1=O` as the compound, how does the IC50 read?
A: The IC50 was 0.6 µM.

Q: `NC(=O)c1cn(-c2ccc(O)cc2Cl)c2cc(-c3ccncc3)ccc2c1=O` was tested. Which IC50 did it give?
A: The IC50 was 0.5 µM.

Q: For `CC(=O)N[C@@H](CC(C)C)C(=O)N[C@@H](CC(C)C)C(=O)N[C@H](C=O)CCCNC(=N)N` [LEUPEPTIN], which IC50 is on record?
A: The IC50 was 0.3 µM.

Q: Which IC50 does the source give for `NC(=O)c1cn(-c2ccc(O)cc2C(F)(F)F)c2cc(-c3ccncc3)ccc2c1=O` here?
A: Its IC50 is 20 µM.

Q: With `NC(=O)c1cn(-c2ccc(O)cc2Cl)c2cc(-c3cccnc3)ccc2c1=O` as the compound, how does the IC50 read?
A: The IC50 was 10 µM.

Q: Which IC50 does the source give for `NC(=O)c1cn(-c2ccc(O)cc2Cl)c2cc(-c3ccncc3Cl)ccc2c1=O` here?
A: Its IC50 is 2 µM.

Q: With `NC(=O)c1cn(-c2ccc(O)cc2Cl)c2cc(-c3cccnn3)ccc2c1=O` as the compound, how does the IC50 read?
A: The IC50 was 2 µM.

biological target: Cathepsin B (Homo sapiens, UniProt P07858); assay: In vitro inhibitory activity against Cathepsin B

Q: For `NC(=O)c1cn(-c2ccc(O)cc2)c2cc(-c3ccncc3)ccc2c1=O`, which IC50 is on record?
A: The IC50 was 32 µM.

Q: For `NC(=O)c1cn(-c2ccc(O)cc2Cl)c2cc(-c3ccncc3)ccc2c1=O`, which IC50 is on record?
A: Its IC50 is 25 µM.

biological target: Procathepsin L (Homo sapiens, UniProt P07711); assay: In vitro inhibitory activity against cathepsin L
Sequence (P07711 whole entry): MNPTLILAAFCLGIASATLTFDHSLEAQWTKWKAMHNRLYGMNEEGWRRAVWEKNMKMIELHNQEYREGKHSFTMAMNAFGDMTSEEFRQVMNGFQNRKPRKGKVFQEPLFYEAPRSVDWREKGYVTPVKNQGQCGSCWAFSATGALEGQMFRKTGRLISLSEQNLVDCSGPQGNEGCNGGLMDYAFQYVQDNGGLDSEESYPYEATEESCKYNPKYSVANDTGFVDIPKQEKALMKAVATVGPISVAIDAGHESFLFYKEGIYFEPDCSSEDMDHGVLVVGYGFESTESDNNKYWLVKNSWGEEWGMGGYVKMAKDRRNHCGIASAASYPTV

Q: For `NC(=O)c1cn(-c2ccc(O)cc2)c2cc(-c3ccncc3)ccc2c1=O`, which IC50 is on record?
A: Its IC50 is 37 µM.

Q: Which IC50 does the source give for `NC(=O)c1cn(-c2ccc(O)cc2Cl)c2cc(-c3ccncc3)ccc2c1=O` here?
A: The IC50 was 22 µM.
